# In US20200253196A1, “SOLVENTS FOR AGRICULTURAL APPLICATIONS AND PESTICIDE FORMULATIONS” (priority 2017, published 2020):
# Assay: Solubility of pesticides in solvents (pesticide powder added in 2% stepwise increments)
# Type: physicochemical
# Details: for Dissolving ability of Comparative Solvent A compared with Inventive Solvent 1: comparison xylene vs ethyl 3-ethoxypropionate; for Dissolving ability of Comparative Solvent A compared with Inventive Solvent 1 / Dissolving ability of Comparative Solvent B compared with Inventive Solvent 1: in words; for Solubility in Comparative Solvent B: solvent Solvesso 150; for Solubility in Comparative Solvent B / Solubility in Inventive Solvent 1 / Solubility in Comparative Solvent A: concentration just prior to the one where the powder is not dissolved, no more than 2% lower than actual solubility; for Solubility in Inventive Solvent 1: solvent ethyl 3-ethoxypropionate; for Solubility in Comparative Solvent A: solvent xylene; for Dissolving ability of Comparative Solvent B compared with Inventive Solvent 1: comparison Solvesso 150 vs ethyl 3-ethoxypropionate
# Protocol: The solubility of various pesticides in these solvents are evaluated.
# Each pesticide powder is added by solvent in 2% stepwise increments to the final pesticide concentration. Each pesticide reaches a concentration where the pesticide powder is not dissolved by the solvent.
Structure (SMILES),Dissolving ability of Comparative Solvent A compared with Inventive Solvent 1,Solubility in Comparative Solvent B [weight %],Solubility in Inventive Solvent 1 [weight %],Solubility in Comparative Solvent A [weight %],Dissolving ability of Comparative Solvent B compared with Inventive Solvent 1
CCOP(=S)(OCC)Oc1nc(Cl)c(Cl)cc1Cl [Chlopyrifos],stronger dissolving ability,54,63,70,
CC(C)N1C(=O)N(c2ccccc2)CS/C1=N\C(C)(C)C [Buprofezin],,16,18,10,comparable dissolving ability
CC(C)(C)C(=O)C(Oc1ccc(Cl)cc1)n1cncn1 (stereo not shown) [Triazolone],,12,32,23,
COC(=O)N(OC)c1ccccc1COc1ccn(-c2ccc(Cl)cc2)n1 [Pyraclostrobin],,31,47,42,
Cc1c(COC(=O)[C@@H]2[C@H](/C=C(\Cl)C(F)(F)F)C2(C)C)cccc1-c1ccccc1 (racemic) [Bifenthrin],stronger dissolving ability,44,43,45,comparable dissolving ability
CC(C)(C)C(O)(CCc1ccc(Cl)cc1)Cn1cncn1 (stereo not shown) [Tebuconazole],,2.0,16,4.0,
CCCCC(C#N)(Cn1cncn1)c1ccc(Cl)cc1 (stereo not shown) [Myclobutanil],,23,39,27,
